The record followed here is patent US20170042849A1, “COMPOSITION FOR BRAIN IMPROVEMENT” (N.V. Nutricia, priority 2014, published 2017).

In assay [1] the test system is C3H/HeOuJ mice. In words: T maze spontaneous alternation spatial memory performance test. The format is in vivo. Particulars: CMA sensitized mice. The method, then:
(§1) Pathogen-free, male C3H/HeOuJ mice (4 weeks old, Charles River Laboratories) mice were bred and raised on a cow's milk protein-free diet (Special Diet Services, Witham, UK) and housed on a 12 h light-dark cycle with access to food and water ad libitum. All animal procedures were conducted in accordance with the guidelines of the Dutch Committee of Animal Experiments. The mice were sensitized orally with 0.5 mL homogenized whey protein (40 mg/mL PBS) and cholera toxin (CT, 20 μg/mL PBS, Quadratech Diagnostics) as an adjuvant; sham-sensitized mice received CT alone. Mice were orally boosted once a week for 5 consecutive weeks. One week after the last sensitization, mice were challenged orally with 0.5 mL whey (100 mg/mL PBS). The mice were fed a control diet, or a diet supplemented with glutamine (5 wt %). At the end, the mice were subjected to social interaction and spatial memory tests. Cow's milk allergy is associated with disturbed social interaction and impaired spatial memory, and thus suited to study the effects of dietary intervention there. […] The percentage of alternation (number of turns in each goal arm) and total trial duration are recorded. This test is used to quantify cognitive deficits in transgenic strains of mice and evaluate novel chemical entities for their effects on cognition. […]

Assay [2] relates to C3H/HeOuJ mice. The experiment in a line: Social interaction test in cow's milk allergy model mice and unsensitized mice. The assay is classed as in vivo. The method, then:
as §1, with “By using video tracking software (EthoVision 3.1.16, Noldus), an interaction zone around the cage was digitally determined. Time spent in the interaction zone as well as frequency” for “The percentage”, “entering the interaction zone over the selected time period was measured.” for “alternation (number of turns in each goal arm) and total trial duration are recorded. This test is used to quantify cognitive deficits in transgenic strains of mice and evaluate novel chemical entities for their effects on cognition.”

With `NC(=O)CC[C@H](N)C(=O)O` [glutamine, L-glutamine], the “% Alternation in spatial memory test” value in the assay with C3H/HeOuJ mice [1] (diet supplemented with glutamine (5 wt %), mean, s.e.) is recorded as 66.7 +/− 6.4 (n = 12) %. Besides, the “Reduced alternation in the T-maze test vs control CMA-mice, in words” value with C3H/HeOuJ mice [1] (diet with supplementation of Gln) was “markedly improved”. Besides, the “Time spent in interaction zone” value with C3H/HeOuJ mice [2] (CMA sensitized mice, diet supplemented with glutamine (5 wt %), mean +/- s.e.) is recorded as 117 +/− 20.8 (n = 12) sec. Further, the “Time spent in the interaction zone” value with C3H/HeOuJ mice [2] (unsensitized mice fed the Gln diet) was 174 ± 19.1 s.
